Data taken from US8394834B2, “Pyrrolidines as NK3 receptor antagonists” (Hoffman-La Roche Inc., priority 2009, dated 2013).

molecular target: T1, recombinant human NK3 receptor (Homo sapiens, UniProt P29371); assay: [3H]SR142801 competition binding assay; conditions: hNK3 receptor, membranes from HEK293 cells transiently expressing the receptor, [3H]SR142801 radioligand
T1 construct: expressed in transfected cells; host or cells: HEK293 cells (transient expression), membranes
T1 sequence (P29371 1-465): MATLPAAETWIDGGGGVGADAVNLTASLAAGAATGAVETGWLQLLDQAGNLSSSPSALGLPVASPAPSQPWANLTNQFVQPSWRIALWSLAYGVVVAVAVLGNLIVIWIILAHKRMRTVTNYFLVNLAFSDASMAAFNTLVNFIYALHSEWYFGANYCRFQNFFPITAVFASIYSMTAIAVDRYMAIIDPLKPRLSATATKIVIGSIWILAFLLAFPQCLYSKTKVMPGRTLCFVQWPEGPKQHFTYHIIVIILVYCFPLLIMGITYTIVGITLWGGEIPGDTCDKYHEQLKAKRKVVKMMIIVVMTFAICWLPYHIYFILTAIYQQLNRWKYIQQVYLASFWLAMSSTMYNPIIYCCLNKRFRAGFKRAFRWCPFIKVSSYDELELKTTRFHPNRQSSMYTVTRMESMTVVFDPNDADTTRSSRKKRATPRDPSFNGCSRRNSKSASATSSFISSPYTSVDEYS
Method: [^3H]SR142801 Competition Binding Assay
hNK3 receptor binding experiment were performed using [^3H]SR142801 (Catalog No. TRK1035, specific activity: 74.0 Ci/mmol, Amersham, GE Healthcare UK limited, Buckinghamshire, UK) and membrane isolated from HEK293 cells transiently expressing recombinant human NK3 receptor. After thawing, the membrane homogenates were centrifuged at 48,000×g for 10 min at 4° C., the pellets were resuspended in the 50 mM Tris-HCl, 4 mM MnCl2, 1 μM phosphoramidon, 0.1% BSA binding buffer at pH 7.4 to a final assay concentration of 5 μg protein/well. For inhibition experiments, membranes were incubated with [^3H]SR142801 at a concentration equal to KD value of radioligand and 10 concentrations of the inhibitory compound (0.0003-10 μM) (in a total reaction volume of 500 μl) for 75 min at room temperature (RT). At the end of the incubation, membranes were filtered onto unitfilter (96-well white microplate with bonded GF/C filter preincubated 1 h in 0.3% PEI+0.3% BSA, Packard BioScience, Meriden, Conn.) with a Filtermate 196 harvester (Packard BioScience) and washed 4 times with ice-cold 50 mM Tris-HCl, pH 7.4 buffer. Nonspecific binding was measured in the presence of 10 μM SB222200 for both radioligands. The radioactivity on the filter was counted (5 min) on a Packard Top-count microplate scintillation counter with quenching correction after addition of 45 μl of microscint 40 (Can berra Packard S. A., Zürich, Switzerland) and shaking for 1 h. Inhibition curves were fitted according to the Hill equation: […]), where nH=slope factor using Excel-fit 4 software (Microsoft). IC50 values were derived from the inhibition curve and the affinity constant (Ki) values were calculated using the Cheng-Prussoff equation Ki=IC50/(1+[L]/KD) where [L] is the concentration of radioligand and KD is its dissociation constant at the receptor, derived from the saturation isotherm. All experiments were performed in duplicate and the mean±standard error (SEM) of the individual Ki values was calculated.

Row | Compound | Ki [nM]
1 | C[C@H](Oc1ccc(Cl)cn1)[C@H]1CN(C(=O)C2CCN(c3cnccn3)CC2)C[C@@H]1c1ccc(Cl)cc1 [Example 2, {(3S,4R)-3-(4-Chloro-phenyl)-4-[1-((S)-5-chloro-pyridin-2-yloxy)-ethyl]-pyrrolidin-1-yl}-(1-pyrazin-2-yl-piperidin-4-yl)-methanone] | 1.9
2 | C[C@H](Oc1ccc(Cl)cn1)[C@H]1CN(C(=O)C2CCN(c3ccc(C(F)(F)F)cn3)CC2)C[C@@H]1c1ccc(Cl)cc1 [Example 4, {(3S,4R)-3-(4-Chloro-phenyl)-4-[1-((S)-5-chloro-pyridin-2-yloxy)-ethyl]-pyrrolidin-1-yl}-(5′-trifluoromethyl-3,4,5,6-tetrahydro-2H-[1,2′]bipyridinyl-4-yl)-methanone] | 0.8
3 | CC(=O)c1ccc(N2CCC(C(=O)N3C[C@H]([C@H](C)Oc4ccc(Cl)cn4)[C@@H](c4ccc(Cl)cc4)C3)CC2)cc1 [Example 5, 1-[4-(4-{(3S,4R)-3-(4-Chloro-phenyl)-4-[1-((S)-5-chloro-pyridin-2-yloxy)-ethyl]-pyrrolidine-1-carbonyl}-piperidin-1-yl)-phenyl]-ethanone] | 0.4
4 | C[C@H](Oc1ccc(Cl)cn1)[C@H]1CN(C(=O)C2CCN(c3ccc(C#N)nn3)CC2)C[C@@H]1c1ccc(Cl)cc1 [Example 6, 6-(4-{(3S,4R)-3-(4-Chloro-phenyl)-4-[1-((S)-5-chloro-pyridin-2-yloxy)-ethyl]-pyrrolidine-1-carbonyl}-piperidin-1-yl)-pyridazine-3-carbonitrile] | 0.5
5 | C[C@H](Oc1ccc(F)cn1)[C@H]1CN(C(=O)C2CCN(c3ccc(C#N)cn3)CC2)C[C@@H]1c1ccc(Cl)cc1 [Example 7, 4-{(3S,4R)-3-(4-Chloro-phenyl)-4-[1-((S)-5-fluoro-pyridin-2-yloxy)-ethyl]-pyrrolidine-1-carbonyl}-3,4,5,6-tetrahydro-2H-[1,2′]bipyridinyl-5′-carbonitrile] | 1.2
6 | CC(=O)c1ccc(N2CCC(C(=O)N3C[C@H]([C@H](C)Oc4ccc(Cl)cn4)[C@@H](c4ccc(Cl)cc4)C3)CC2)nc1 [Example 9, 1-(4-{(3S,4R)-3-(4-Chloro-phenyl)-4-[1-((S)-5-chloro-pyridin-2-yloxy)-ethyl]-pyrrolidine-1-carbonyl}-3,4,5,6-tetrahydro-2H-[1,2′]bipyridinyl-5′-yl)-ethanone] | 0.5
7 | C[C@H](Oc1ccc(Cl)cn1)[C@H]1CN(C(=O)C2CCN(c3cc(C#N)ccn3)CC2)C[C@@H]1c1ccc(Cl)cc1 [Example 11, 4-{(3S,4R)-3-(4-Chloro-phenyl)-4-[1-((S)-5-chloro-pyridin-2-yloxy)-ethyl]-pyrrolidine-1-carbonyl}-3,4,5,6-tetrahydro-2H-[1,2′]bipyridinyl-4′-carbonitrile] | 0.5
8 | COc1ccc(N2CCC(C(=O)N3C[C@H]([C@H](C)Oc4ccc(Cl)cn4)[C@@H](c4ccc(Cl)cc4)C3)CC2)nc1 [Example 13, {(3S,4R)-3-(4-Chloro-phenyl)-4-[1-((S)-5-chloro-pyridin-2-yloxy)-ethyl]-pyrrolidin-1-yl}-(5′-methoxy-3,4,5,6-tetrahydro-2H-[1,2′]bipyridinyl-4-yl)-methanone] | 0.7
9 | COc1ccc(N2CCC(C(=O)N3C[C@H]([C@H](C)Oc4ccc(Cl)cn4)[C@@H](c4ccc(Cl)cc4)C3)CC2)cn1 [Example 15, {(3S,4R)-3-(4-Chloro-phenyl)-4-[1-((S)-5-chloro-pyridin-2-yloxy)-ethyl]-pyrrolidin-1-yl}-(6′-methoxy-3,4,5,6-tetrahydro-2H-[1,3,′]bipyridinyl-4-yl)-methanone] | 0.5
10 | Cc1nnc(N2CCC(C(=O)N3C[C@H]([C@H](C)Oc4ccc(Cl)cn4)[C@@H](c4ccc(Cl)cc4)C3)CC2)o1 [Example 18, {(3S,4R)-3-(4-Chloro-phenyl)-4-[1-((S)-5-chloro-pyridin-2-yloxy)-ethyl]-pyrrolidin-1-yl}-[1-(5-methyl-[1,3,4]oxadiazol-2-yl)-piperidin-4-yl]-methanone] | 3.1
11 | C[C@H](Oc1ccc(C#N)cn1)[C@H]1CN(C(=O)C2CCN(c3ccc(C#N)cn3)CC2)C[C@@H]1c1ccc(F)c(F)c1 [Example 19, 4-[(3R,48)-3-[1-((S)-5-Cyano-pyridin-2-yloxy)-ethyl]-4-(3,4-difluoro-phenyl)-pyrrolidine-1-carbonyl]-3,4,5,6-tetrahydro-2H-[1,2′]bipyridinyl-5′-carbonitrile] | 1.2

Other lines, results leading:

Row | Ki [nM] | Compound
12 | 0.4 | C[C@H](Oc1ccc(Cl)cn1)[C@H]1CN(C(=O)C2CCN(c3ccc(C#N)cn3)CC2)C[C@@H]1c1ccc(Cl)cc1 [Example 1, 4-{(3S,4R)-3-(4-Chloro-phenyl)-4-[1-((S)-5-chloro-pyridin-2-yloxy)-ethyl]-pyrrolidine-1-carbonyl}-3,4,5,6-tetrahydro-2H-[1,2′]bipyridinyl-5′-carbonitrile]
13 | 2.1 | C[C@H](Oc1ccc(Cl)cn1)[C@H]1CN(C(=O)C2CCN(c3ncccn3)CC2)C[C@@H]1c1ccc(Cl)cc1 [Example 3, {(3S,4R)-3-(4-Chloro-phenyl)-4-[1-((S)-5-chloro-pyridin-2-yloxy)-ethyl]-pyrrolidin-1-yl}-(1-pyrimidin-2-yl-piperidin-4-yl)-methanone]
14 | 1.3 | C[C@H](Oc1ccc(Cl)cn1)[C@H]1CN(C(=O)C2CCN(c3ccncn3)CC2)C[C@@H]1c1ccc(Cl)cc1 [Example 8, {(3S,4R)-3-(4-Chloro-phenyl)-4-[1-((S)-5-chloro-pyridin-2-yloxy)-ethyl]pyrrolidin-1-yl}-(1-pyrimidin-4-yl-piperidin-4-yl)-methanone]
15 | 6.1 | C[C@H](Oc1ccc(Cl)cn1)[C@H]1CN(C(=O)C2CCN(c3ncccc3C#N)CC2)C[C@@H]1c1ccc(Cl)cc1 [Example 10, 4-{(3S,4R)-3-(4-Chloro-phenyl)-4-[1-((S)-5-chloro-pyridin-2-yloxy)-ethyl]-pyrrolidine-1-carbonyl}-3,4,5,6-tetrahydro-2H-[1,2′]bipyridinyl-3′-carbonitrile]
16 | 2.1 | Cc1ccc(N2CCC(C(=O)N3C[C@H]([C@H](C)Oc4ccc(F)cn4)[C@@H](c4ccc(Cl)cc4)C3)CC2)nn1 [Example 12, {(3S,4R)-3-(4-Chloro-phenyl)-4-[1-((S)-5-fluoro-pyridin-2-yloxy)-ethyl]-pyrrolidin-1-yl}-[1-(6-methyl-pyridazin-3-yl)-piperidin-4-yl]-methanone]
17 | 1.2 | COc1ccc(N2CCC(C(=O)N3C[C@H]([C@H](C)Oc4ccc(Cl)cn4)[C@@H](c4ccc(Cl)cc4)C3)CC2)nn1 [Example 14, {(3S,4R)-3-(4-Chloro-phenyl)-4-[1-((S)-5-chloro-pyridin-2-yloxy)-ethyl]-pyrrolidin-1-yl}-[1-(6-methoxy-pyridazin-3-yl)-piperidin-4-yl]-methanone]
18 | 0.8 | C[C@H](Oc1ccc(F)cn1)[C@H]1CN(C(=O)C2CCN(c3ccc(C#N)nn3)CC2)C[C@@H]1c1ccc(Cl)cc1 [Example 16, 6-(4-{(3S,4R)-3-(4-Chloro-phenyl)-4-[1-((S)-5-fluoro-pyridin-2-yloxy)-ethyl]-pyrrolidine-1-carbonyl}-piperidin-1-yl)-pyridazine-3-carbonitrile]
19 | 1.5 | C[C@H](Oc1ccc(Cl)cn1)[C@H]1CN(C(=O)C2CCN(c3cccc(C#N)n3)CC2)C[C@@H]1c1ccc(Cl)cc1 [Example 17, 4-{(3S,4R)-3-(4-Chloro-phenyl)-4-[1-((S)-5-chloro-pyridin-2-yloxy)-ethyl]-pyrrolidine-1-carbonyl}-3,4,5,6-tetrahydro-2H-[1,2′]bipyridinyl-6′-carbonitrile]
